Data taken from ChEMBL document CHEMBL1136863, “Identification and SAR of squarate inhibitors of mitogen activated protein kinase-activated protein kinase 2 (MK-2)” (Bioorg Med Chem, 2009).
pIC50: −log10 of the molar value.

Legend:
Cytochrome P450 3A4 = Cytochrome P450 3A4 (Homo sapiens, UniProt P08684); test: Inhibition of CYP3A4; assay type: ADME
Cytochrome P450 2C9 = Cytochrome P450 2C9 (Homo sapiens, UniProt P11712); test: Inhibition of CYP2C9; assay type: ADME
Cytochrome P450 2D6 = Cytochrome P450 2D6 (Homo sapiens, UniProt P10635); test: Inhibition of CYP2D6; assay type: ADME
THP-1 = test: Inhibition of LPS-stimulated TNFalpha production in human THP1 cells
[1] = biological target: Tyrosine-protein kinase Fyn (Homo sapiens, UniProt P06241); test: Inhibition of FYN
Tyrosine-protein kinase Fyn, sequence (P06241 whole entry): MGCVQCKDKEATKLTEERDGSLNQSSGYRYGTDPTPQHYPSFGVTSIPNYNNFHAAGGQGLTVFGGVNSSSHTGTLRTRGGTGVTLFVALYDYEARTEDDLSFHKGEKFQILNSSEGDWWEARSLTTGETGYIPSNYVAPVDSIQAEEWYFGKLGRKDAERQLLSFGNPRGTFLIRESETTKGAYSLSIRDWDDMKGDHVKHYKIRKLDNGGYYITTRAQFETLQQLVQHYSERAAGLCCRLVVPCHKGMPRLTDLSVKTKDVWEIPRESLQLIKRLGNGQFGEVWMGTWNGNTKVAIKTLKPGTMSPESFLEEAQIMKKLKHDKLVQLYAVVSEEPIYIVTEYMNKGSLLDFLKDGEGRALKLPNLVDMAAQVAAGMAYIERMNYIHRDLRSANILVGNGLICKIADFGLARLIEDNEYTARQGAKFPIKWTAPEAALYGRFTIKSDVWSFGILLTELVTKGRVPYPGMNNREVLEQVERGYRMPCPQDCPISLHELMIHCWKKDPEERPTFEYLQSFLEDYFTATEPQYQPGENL

[2] = biological target: T1, Inhibitor of nuclear factor kappa-B kinase subunit alpha (Homo sapiens, UniProt O15111); test: Inhibition of IKKalpha
T1 sequence (O15111 whole entry): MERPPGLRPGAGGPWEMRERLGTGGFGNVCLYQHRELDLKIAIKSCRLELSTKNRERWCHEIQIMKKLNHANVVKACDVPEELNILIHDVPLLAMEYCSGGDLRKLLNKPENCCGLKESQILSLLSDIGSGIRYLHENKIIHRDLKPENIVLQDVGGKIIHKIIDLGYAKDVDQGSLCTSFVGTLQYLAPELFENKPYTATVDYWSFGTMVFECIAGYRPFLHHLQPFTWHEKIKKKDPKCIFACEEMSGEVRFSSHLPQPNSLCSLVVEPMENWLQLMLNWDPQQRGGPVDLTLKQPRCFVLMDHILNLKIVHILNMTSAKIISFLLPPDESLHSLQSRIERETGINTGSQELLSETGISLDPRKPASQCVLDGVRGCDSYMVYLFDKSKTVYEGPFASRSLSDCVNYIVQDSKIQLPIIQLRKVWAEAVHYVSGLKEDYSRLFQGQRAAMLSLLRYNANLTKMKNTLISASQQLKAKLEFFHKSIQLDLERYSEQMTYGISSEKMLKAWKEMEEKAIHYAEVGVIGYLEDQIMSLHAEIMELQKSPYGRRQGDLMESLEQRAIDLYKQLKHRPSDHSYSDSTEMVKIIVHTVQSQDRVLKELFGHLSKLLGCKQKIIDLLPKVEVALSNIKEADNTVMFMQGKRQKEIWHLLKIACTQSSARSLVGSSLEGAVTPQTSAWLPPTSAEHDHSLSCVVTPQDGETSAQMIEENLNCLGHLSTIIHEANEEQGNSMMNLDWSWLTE

[3] = biological target: Mitogen-activated protein kinase 14 (Homo sapiens, UniProt Q16539); test: Inhibition of p38alpha
[4] = biological target: Platelet-derived growth factor receptor alpha (Homo sapiens, UniProt P16234); test: Inhibition of PDGFRalpha
[5] = biological target: Protein kinase C alpha type (Homo sapiens, UniProt P17252); test: Inhibition of PKCalpha
[6] = biological target: Ribosomal protein S6 kinase alpha-1 (Homo sapiens, UniProt Q15418); test: Inhibition of RSK1
Ribosomal protein S6 kinase alpha-1, sequence (Q15418 whole entry): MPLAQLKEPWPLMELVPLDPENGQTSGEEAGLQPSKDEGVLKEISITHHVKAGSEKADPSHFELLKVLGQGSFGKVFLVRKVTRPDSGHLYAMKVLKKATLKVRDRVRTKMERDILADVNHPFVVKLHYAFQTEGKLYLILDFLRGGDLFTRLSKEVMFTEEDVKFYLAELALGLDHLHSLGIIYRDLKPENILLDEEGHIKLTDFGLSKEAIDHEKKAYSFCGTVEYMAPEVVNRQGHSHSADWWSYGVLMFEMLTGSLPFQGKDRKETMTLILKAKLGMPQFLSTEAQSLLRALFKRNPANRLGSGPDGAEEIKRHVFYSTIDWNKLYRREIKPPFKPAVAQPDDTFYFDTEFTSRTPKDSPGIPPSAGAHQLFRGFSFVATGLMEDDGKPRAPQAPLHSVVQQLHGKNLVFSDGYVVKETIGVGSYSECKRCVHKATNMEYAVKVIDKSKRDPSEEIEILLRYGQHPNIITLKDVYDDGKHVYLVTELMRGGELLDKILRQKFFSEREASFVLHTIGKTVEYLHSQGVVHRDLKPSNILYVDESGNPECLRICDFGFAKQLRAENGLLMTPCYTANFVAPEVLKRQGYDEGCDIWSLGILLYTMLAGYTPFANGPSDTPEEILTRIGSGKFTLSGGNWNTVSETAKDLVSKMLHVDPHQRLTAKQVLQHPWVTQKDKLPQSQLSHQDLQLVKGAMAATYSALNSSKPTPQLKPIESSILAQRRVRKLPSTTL

[7] = biological target: Proto-oncogene tyrosine-protein kinase Src (Homo sapiens, UniProt P12931); test: Inhibition of SRC
Proto-oncogene tyrosine-protein kinase Src, sequence (P12931 2-536 limits assumed): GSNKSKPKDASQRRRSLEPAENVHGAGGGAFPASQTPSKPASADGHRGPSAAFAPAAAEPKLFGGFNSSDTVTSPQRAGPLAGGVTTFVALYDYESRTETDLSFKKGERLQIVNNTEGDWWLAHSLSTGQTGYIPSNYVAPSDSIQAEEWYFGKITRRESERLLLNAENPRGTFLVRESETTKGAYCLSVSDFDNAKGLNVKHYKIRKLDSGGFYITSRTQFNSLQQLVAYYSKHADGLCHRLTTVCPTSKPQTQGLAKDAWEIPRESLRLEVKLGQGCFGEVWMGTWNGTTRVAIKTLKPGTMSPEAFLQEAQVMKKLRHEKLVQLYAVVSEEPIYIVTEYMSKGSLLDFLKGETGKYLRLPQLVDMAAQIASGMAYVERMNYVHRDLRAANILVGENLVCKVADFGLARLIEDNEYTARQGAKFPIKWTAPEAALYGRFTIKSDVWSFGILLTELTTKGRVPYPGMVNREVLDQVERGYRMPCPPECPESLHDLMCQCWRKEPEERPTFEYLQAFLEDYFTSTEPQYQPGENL

Aurora kinase B = Aurora kinase B (Homo sapiens, UniProt Q96GD4); test: Inhibition of Aurora B
[8] = biological target: Casein kinase I isoform gamma-1 (Homo sapiens, UniProt Q9HCP0); test: Inhibition of CK1-gamma1
Casein kinase I isoform gamma-1, sequence (Q9HCP0 whole entry, canonical isoform): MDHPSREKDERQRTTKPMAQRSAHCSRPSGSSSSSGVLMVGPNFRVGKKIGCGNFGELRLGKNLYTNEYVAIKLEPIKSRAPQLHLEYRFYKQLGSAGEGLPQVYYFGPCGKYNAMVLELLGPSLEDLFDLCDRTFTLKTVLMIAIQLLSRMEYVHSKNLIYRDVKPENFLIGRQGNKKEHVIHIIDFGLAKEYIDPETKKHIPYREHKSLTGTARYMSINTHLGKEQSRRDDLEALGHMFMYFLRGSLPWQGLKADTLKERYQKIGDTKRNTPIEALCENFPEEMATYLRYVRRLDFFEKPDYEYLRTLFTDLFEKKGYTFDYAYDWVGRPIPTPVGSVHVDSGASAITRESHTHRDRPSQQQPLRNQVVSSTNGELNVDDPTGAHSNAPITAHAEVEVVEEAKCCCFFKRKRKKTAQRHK

[9] = biological target: Mitogen-activated protein kinase 1 (Homo sapiens, UniProt P28482); test: Inhibition of ERK2
Mitogen-activated protein kinase 1, sequence (P28482 whole entry): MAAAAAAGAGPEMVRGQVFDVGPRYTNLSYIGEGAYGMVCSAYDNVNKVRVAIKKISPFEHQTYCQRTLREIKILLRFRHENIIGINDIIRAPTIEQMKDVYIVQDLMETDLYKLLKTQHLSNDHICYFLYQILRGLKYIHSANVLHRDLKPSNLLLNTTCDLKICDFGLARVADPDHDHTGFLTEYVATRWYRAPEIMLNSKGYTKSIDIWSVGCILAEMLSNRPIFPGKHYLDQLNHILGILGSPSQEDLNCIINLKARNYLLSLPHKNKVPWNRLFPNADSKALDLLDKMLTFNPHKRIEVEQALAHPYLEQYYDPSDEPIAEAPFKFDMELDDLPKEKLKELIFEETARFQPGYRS

[10] = biological target: Rho-associated protein kinase 1 (Homo sapiens, UniProt Q13464); test: Inhibition of ROCK1
Rho-associated protein kinase 1, sequence (Q13464 whole entry): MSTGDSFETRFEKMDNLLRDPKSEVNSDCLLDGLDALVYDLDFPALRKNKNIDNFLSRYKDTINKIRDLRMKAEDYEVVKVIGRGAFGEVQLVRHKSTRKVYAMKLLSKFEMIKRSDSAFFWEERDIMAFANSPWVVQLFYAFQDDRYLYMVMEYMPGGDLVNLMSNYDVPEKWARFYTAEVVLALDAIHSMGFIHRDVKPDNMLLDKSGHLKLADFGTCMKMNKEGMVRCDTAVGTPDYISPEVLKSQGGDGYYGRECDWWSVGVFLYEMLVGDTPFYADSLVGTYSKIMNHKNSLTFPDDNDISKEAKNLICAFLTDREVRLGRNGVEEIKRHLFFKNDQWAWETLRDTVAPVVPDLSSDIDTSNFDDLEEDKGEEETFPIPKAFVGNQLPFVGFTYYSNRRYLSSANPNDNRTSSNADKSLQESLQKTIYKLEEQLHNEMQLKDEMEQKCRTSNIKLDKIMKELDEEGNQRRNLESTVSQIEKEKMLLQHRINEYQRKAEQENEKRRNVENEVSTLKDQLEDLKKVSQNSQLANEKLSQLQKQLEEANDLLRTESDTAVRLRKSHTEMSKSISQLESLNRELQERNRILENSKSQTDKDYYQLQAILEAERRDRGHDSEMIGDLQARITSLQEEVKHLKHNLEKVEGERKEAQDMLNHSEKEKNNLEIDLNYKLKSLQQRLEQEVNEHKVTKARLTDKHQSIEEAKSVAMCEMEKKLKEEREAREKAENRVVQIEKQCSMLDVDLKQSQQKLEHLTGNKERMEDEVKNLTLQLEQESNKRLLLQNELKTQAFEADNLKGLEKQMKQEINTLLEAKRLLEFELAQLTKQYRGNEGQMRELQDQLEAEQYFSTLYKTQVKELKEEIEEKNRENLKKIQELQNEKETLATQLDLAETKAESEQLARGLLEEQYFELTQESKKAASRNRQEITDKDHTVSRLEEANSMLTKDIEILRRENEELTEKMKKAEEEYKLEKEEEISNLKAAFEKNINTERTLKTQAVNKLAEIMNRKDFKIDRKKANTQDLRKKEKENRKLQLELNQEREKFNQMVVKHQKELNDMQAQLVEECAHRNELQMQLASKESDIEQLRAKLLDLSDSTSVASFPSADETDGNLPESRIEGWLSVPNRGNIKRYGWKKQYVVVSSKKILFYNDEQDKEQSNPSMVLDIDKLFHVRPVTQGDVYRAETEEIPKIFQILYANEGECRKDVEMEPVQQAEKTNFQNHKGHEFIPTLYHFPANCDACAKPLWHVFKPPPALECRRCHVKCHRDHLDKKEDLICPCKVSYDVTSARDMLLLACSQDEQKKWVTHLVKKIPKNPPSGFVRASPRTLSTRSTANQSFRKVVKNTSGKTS

[11] = biological target: MAP kinase-activated protein kinase 2 (Homo sapiens, UniProt P49137)
Description: Inhibition of human recombinant MK2

CYP3A4 = CYP3A4 (Homo sapiens, UniProt P08684); test: Inhibition of CYP3A4 at 3 uM; assay type: ADME
CYP3A4, sequence (P08684 whole entry): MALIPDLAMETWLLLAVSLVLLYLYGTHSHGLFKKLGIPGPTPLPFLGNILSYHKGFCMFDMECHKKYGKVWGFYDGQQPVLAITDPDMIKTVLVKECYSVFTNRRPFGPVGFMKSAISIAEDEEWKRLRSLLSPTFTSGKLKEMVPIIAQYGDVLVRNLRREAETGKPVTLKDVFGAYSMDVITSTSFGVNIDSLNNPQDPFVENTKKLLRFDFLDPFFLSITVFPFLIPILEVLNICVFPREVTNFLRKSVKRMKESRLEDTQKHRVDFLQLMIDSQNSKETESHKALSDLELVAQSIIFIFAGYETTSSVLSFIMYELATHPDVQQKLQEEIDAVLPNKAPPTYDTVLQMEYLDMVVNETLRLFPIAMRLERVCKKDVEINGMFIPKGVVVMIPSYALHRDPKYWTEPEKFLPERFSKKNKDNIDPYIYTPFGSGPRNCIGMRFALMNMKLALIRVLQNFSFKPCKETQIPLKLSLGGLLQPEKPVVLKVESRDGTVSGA

CYP2C9 = CYP2C9 (Homo sapiens, UniProt P11712); test: Inhibition of CYP2C9 at 3 uM; assay type: ADME
CYP2D6 = CYP2D6 (Homo sapiens, UniProt P10635); test: Inhibition of CYP2D6 at 3 uM; assay type: ADME

Cytochrome P450 2C9, sequence (P11712 whole entry): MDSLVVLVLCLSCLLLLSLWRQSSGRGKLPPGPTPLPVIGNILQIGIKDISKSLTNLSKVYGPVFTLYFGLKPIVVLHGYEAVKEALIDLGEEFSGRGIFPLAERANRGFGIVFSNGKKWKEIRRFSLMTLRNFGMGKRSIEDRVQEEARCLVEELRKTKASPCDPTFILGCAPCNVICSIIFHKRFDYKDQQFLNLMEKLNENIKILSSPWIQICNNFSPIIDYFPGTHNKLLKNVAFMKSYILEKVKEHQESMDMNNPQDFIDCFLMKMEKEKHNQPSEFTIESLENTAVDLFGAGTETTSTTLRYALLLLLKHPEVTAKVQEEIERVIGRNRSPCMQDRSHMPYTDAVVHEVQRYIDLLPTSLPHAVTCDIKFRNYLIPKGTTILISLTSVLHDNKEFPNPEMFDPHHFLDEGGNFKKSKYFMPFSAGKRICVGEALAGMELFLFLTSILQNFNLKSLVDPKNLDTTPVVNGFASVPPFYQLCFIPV
Cytochrome P450 3A4, sequence (P08684 whole entry): as the sequence (P08684 whole entry) above

pIC50 (THP-1)	pIC50 [1]	pIC50 [2]	pIC50 [3]	pIC50 [4]	pIC50 [5]	pIC50 [6]	pIC50 [7]	pIC50 (Aurora kinase B)	pIC50 [8]	pIC50 [9]	pIC50 [11]	Compound	also measured
5.66	< 4.30	< 4.30	4.66	< 4.30	< 4.30	< 4.30	< 4.30	< 4.30	< 4.30	< 4.30	5.24	C[C@@H](Nc1c(Nc2ccnc(-c3ccccc3F)c2)c(=O)c1=O)c1ccccc1	pIC50 [10]: < 4.30
–	–	–	–	–	–	–	–	–	–	–	< 4.00	C[C@H](c1ccccc1)N(C)c1c(Nc2ccncc2)c(=O)c1=O	–
–	–	–	–	–	–	–	–	–	–	–	< 4.00	C[C@@H](Nc1c(Nc2ccnc(Cl)c2)c(=O)c1=O)c1ccccc1	–
5.68	< 4.30	< 4.30	< 4.30	4.57	< 4.30	< 4.30	< 4.30	5.06	5.31	4.46	5.28	C[C@@H](Nc1c(Nc2ccnc(-c3ccco3)c2)c(=O)c1=O)c1ccccc1	pIC50 [10]: < 4.30
–	–	–	–	–	–	–	–	–	–	–	< 4.00	C[C@@H](Nc1c(Nc2cccnc2)c(=O)c1=O)c1ccccc1	inhibition at 3 µM (CYP3A4): 16%; inhibition at 3 µM (CYP2C9): 1%; inhibition at 3 µM (CYP2D6): 26%
4.47	–	–	–	–	–	–	–	–	–	–	–	CC(Nc1c(Nc2ccncc2)c(=O)c1=O)c1cccc(O)c1 (configuration not stated)	–
–	–	–	–	–	–	–	–	–	–	–	< 4.00	C[C@@H](Nc1c(Nc2ccncn2)c(=O)c1=O)c1ccccc1	–
–	–	–	–	–	–	–	–	–	–	–	< 4.00	C[C@@H](Nc1c(Nc2ccn[nH]2)c(=O)c1=O)c1ccccc1	pIC50 (Cytochrome P450 3A4): 4.40; pIC50 (Cytochrome P450 2C9): 4.92
< 4.40	< 4.30	< 4.30	< 4.30	4.36	–	6.11	< 4.30	5.22	6.28	5.20	5.35	NC(=O)C(Nc1c(Nc2ccncc2)c(=O)c1=O)c1ccccc1 (configuration not stated)	pIC50 (Cytochrome P450 3A4): 5.07; pIC50 (Cytochrome P450 2C9): 5.29; pIC50 (Cytochrome P450 2D6): < 5.00
5.96	–	–	–	–	–	–	–	–	–	–	–	C[C@@H](Nc1c(Nc2ccnc(Nc3ccncn3)c2)c(=O)c1=O)c1ccccc1	–
–	4.82	< 4.30	< 4.30	4.44	< 4.30	< 4.30	< 4.30	4.97	4.94	< 4.30	5.27	C[C@@H](Nc1c(Nc2ccnc(-c3ccsc3)c2)c(=O)c1=O)c1ccccc1	pIC50 [10]: < 4.30
–	–	–	–	–	–	–	–	–	–	–	< 4.00	C[C@@H](Nc1c(N(C)c2ccncc2)c(=O)c1=O)c1ccccc1	–

Compound	pIC50 (THP-1)	pIC50 [1]	pIC50 [2]	pIC50 [3]	pIC50 [4]	pIC50 [5]	pIC50 [6]	pIC50 [7]	pIC50 (Aurora kinase B)	pIC50 [8]	pIC50 [9]	pIC50 [11]	also measured
C[C@@H](Nc1c(Nc2ccncc2)c(=O)c1=O)c1ccccc1	4.97	< 4.30	< 4.30	< 4.30	4.39	< 4.30	6.09	< 4.30	–	–	–	–	pIC50 (Cytochrome P450 3A4): 5.89; pIC50 (Cytochrome P450 2C9): 6.22; pIC50 (Cytochrome P450 2D6): 5.48
NC(=O)C(Nc1c(Nc2ccncc2)c(=O)c1=O)c1cccc(O)c1 (configuration not stated)	4.77	< 4.30	< 4.30	< 4.30	4.95	4.47	6.54	< 4.30	5.85	6.80	5.38	6.41	pIC50 (Cytochrome P450 3A4): < 5.00; pIC50 (Cytochrome P450 2C9): 5.19; pIC50 (Cytochrome P450 2D6): < 5.00; pIC50 [10]: 7.22
